# Source: patent publication US20220043347A1, “ACTINIC RAY-SENSITIVE OR RADIATION-SENSITIVE RESIN COMPOSITION, RESIST FILM, PATTERN FORMING METHOD, AND METHOD FOR MANUFACTURING ELECTRONIC DEVICE” (FUJIFILM Corporation, priority 2019, published 2022)
# Assay: Acid dissociation constant (pKa) determined by computation (ACD/Labs Software Package 1; Gaussian 16 DFT where not calculable)
# Conditions: acid generated from photoacid generator B
# Description: In the present specification, an acid dissociation constant (pKa) represents a pKa in an aqueous solution, and is specifically a value determined by computation from a value based on a Hammett's substituent constant and database of publicly known literature values, using the following software package 1. Any of the pKa values described in the present specification indicate values determined by computation using the software package.
# Software Package 1: Advanced Chemistry Development (ACD/Labs) Software V 8.14 for Solaris (1994-2007 ACD/Labs).
# As described above, the pKa in the present specification refers to a value determined by computation from a value based on a Hammett's substituent constant and database of publicly known literature values, using the software package 1, but in a case where the pKa cannot be calculated by the method, a value obtained by Gaussian 16 based on density functional theory (DFT) shall be adopted.
# In addition, the pKa in the present specification refers to a “pKa in an aqueous solution” as described above, but in a case where the pKa in an aqueous solution cannot be calculated, a “pKa in a dimethyl sulfoxide (DMSO) solution” shall be adopted.
# Furthermore, in the measurement of the acid dissociation constant (pKa) of an acid generated from the photoacid generator B, specifically, the pKa is a value determined by subjecting a compound formed by substituting each cationic moiety in the compounds B-1 to B-29 with […](for example, in a case of the compound B-1, a compound formed by substituting the triphenylsulfonium cation with H^+) to computation from a value based on a Hammett's substituent constant and database of publicly known literature values, using Software Package 1 of ACD/Labs, as described above. In addition, in a case where pKa could not be calculated by the method, a value obtained by Gaussian 16 based on density functional theory (DFT) was adopted.
# In the following table, “pKa1” represents an acid dissociation constant of the first stage, “pKa2” represents an acid dissociation constant of the second stage, and “pKa3” represents an acid dissociation constant of the third stage. A smaller value of pKa means a higher acidity. […]
row,Difference between acid dissociation constant a1 and acid dissociation constant a2,Structure (SMILES)
1,4.82,COc1ccc([S+](c2ccccc2)c2ccccc2)cc1.COc1ccc([S+](c2ccccc2)c2ccccc2)cc1.O=C(OCCCS(=O)(=O)[O-])C(F)(F)S(=O)(=O)[O-] [Compound B-6]
2,3.23,CS(=O)(=O)NS(=O)(=O)CCCOC(=O)C(F)(F)S(=O)(=O)O [Compound B-11]
3,2.79,CC(C)(C#N)C(=O)[N-]S(=O)(=O)C(F)(F)C(F)(F)C(F)(F)S(=O)(=O)[N-]S(C)(=O)=O.Cc1ccc(-[s+]2c3ccccc3c3ccccc32)cc1.Cc1ccc(-[s+]2c3ccccc3c3ccccc32)cc1 [Compound B-15]
4,0.74,CC1(C)C2CCC1(CS(=O)(=O)[N-]S(=O)(=O)C(F)(F)C(F)(F)C(F)(F)S(=O)(=O)[O-])C(=O)C2.Cc1ccc([S+](c2ccccc2)c2ccccc2)cc1.Cc1ccc([S+](c2ccccc2)c2ccccc2)cc1 (stereo not drawn) [Compound B-16]
5,2.53,Cc1cc([S+](c2ccc(C(F)(F)F)cc2)c2ccc(C(F)(F)F)cc2)cc(C)c1OCC(=O)OC(C)(C)C.Cc1cc([S+](c2ccc(C(F)(F)F)cc2)c2ccc(C(F)(F)F)cc2)cc(C)c1OCC(=O)OC(C)(C)C.Cc1cc([S+](c2ccc(C(F)(F)F)cc2)c2ccc(C(F)(F)F)cc2)cc(C)c1OCC(=O)OC(C)(C)C.O=C([N-]S(=O)(=O)C(F)(F)C(F)(F)C(F)(F)S(=O)(=O)[O-])c1ccc(OS(=O)(=O)C(F)(F)C(F)(F)C(F)(F)S(=O)(=O)[O-])cc1 [Compound B-25]
6,4.99,CC(C)(C)OC(=O)c1cc(OS(=O)(=O)C(F)(F)S(=O)(=O)[O-])cc(C(=O)[N-]S(=O)(=O)C(F)(F)S(=O)(=O)[O-])c1.Cc1cc(C)cc([S+](c2cc(C)cc(C)c2)c2cc(C(F)(F)F)cc(C(F)(F)F)c2)c1.Cc1cc(C)cc([S+](c2cc(C)cc(C)c2)c2cc(C(F)(F)F)cc(C(F)(F)F)c2)c1.Cc1cc(C)cc([S+](c2cc(C)cc(C)c2)c2cc(C(F)(F)F)cc(C(F)(F)F)c2)c1 [Compound B-26]

# The remaining lines, values behind:
row,Structure (SMILES),Difference between acid dissociation constant a1 and acid dissociation constant a2
1,O=C(CC(F)(F)F)[N-]S(=O)(=O)C(F)(F)C(F)(F)C(F)(F)S(=O)(=O)[O-].c1ccc([S+](c2ccccc2)c2ccccc2)cc1.c1ccc([S+](c2ccccc2)c2ccccc2)cc1 [Compound B-1],3.17
2,COc1ccc([S+](c2ccccc2)c2ccccc2)cc1.COc1ccc([S+](c2ccccc2)c2ccccc2)cc1.O=S(=O)([O-])C(F)(F)C(F)(F)C(F)(F)S(=O)(=O)[N-]C1CCCCC1 [Compound B-2],9.59
3,O=C(O)C(F)(F)C(F)(F)C(F)(F)C(=O)OC12CC3CC(CC(COC(=O)C(F)(F)S(=O)(=O)O)(C3)C1)C2 [Compound B-3],2.92
4,O=C(COC(=O)C(F)(F)S(=O)(=O)O)NC(=O)C(F)(F)F [Compound B-4],9.23
5,CS(=O)(=O)[N-]C(=O)C(F)(F)C(F)(F)C(F)(F)C(=O)OCC(F)S(=O)(=O)[O-].c1ccc([S+](c2ccccc2)c2ccccc2)cc1.c1ccc([S+](c2ccccc2)c2ccccc2)cc1 (stereo not drawn) [Compound B-5],2.55
6,CCCCC(CC)C(=O)NS(=O)(=O)C(F)(F)C(F)(F)C(F)(F)S(=O)(=O)NS(=O)(=O)C(F)(F)F (stereo not drawn) [Compound B-12],11.4
7,O=C([O-])CCCOC(=O)C(CS(=O)(=O)[O-])C(F)(F)F.O=S(=O)(c1ccc([S+](c2ccccc2)c2ccccc2)cc1)C1CCCCC1.O=S(=O)(c1ccc([S+](c2ccccc2)c2ccccc2)cc1)C1CCCCC1 [Compound B-14],3.63
8,O=C(NS(=O)(=O)C(F)(F)C(F)(F)C(F)(F)S(=O)(=O)O)c1ccccc1I [Compound B-22],2.97
9,CC1(OC(=O)c2cc(C(=O)NS(=O)(=O)C(F)(F)C(F)(F)C(F)(F)S(=O)(=O)NS(=O)(=O)C(F)(F)F)cc(C(=O)OC3(C)CCCC3)c2)CCCC1 [Compound B-23],10.13
